SMILES strings stand for the structures. Where a name gives a salt, the structure may show the parent alone.

For the assay, the target named is T1, NOX2 in differentiated HL60 cells (Homo sapiens, UniProt P04839).
T1 construct: Differentiation of HL-60 cells to granulocytes increases NOX2 expression; endogenous in cells; host or cells: HL60 cells differentiated to neutrophil-like cells with 1.3% DMSO and stimulated with PMA
T1 sequence (P04839 1-570): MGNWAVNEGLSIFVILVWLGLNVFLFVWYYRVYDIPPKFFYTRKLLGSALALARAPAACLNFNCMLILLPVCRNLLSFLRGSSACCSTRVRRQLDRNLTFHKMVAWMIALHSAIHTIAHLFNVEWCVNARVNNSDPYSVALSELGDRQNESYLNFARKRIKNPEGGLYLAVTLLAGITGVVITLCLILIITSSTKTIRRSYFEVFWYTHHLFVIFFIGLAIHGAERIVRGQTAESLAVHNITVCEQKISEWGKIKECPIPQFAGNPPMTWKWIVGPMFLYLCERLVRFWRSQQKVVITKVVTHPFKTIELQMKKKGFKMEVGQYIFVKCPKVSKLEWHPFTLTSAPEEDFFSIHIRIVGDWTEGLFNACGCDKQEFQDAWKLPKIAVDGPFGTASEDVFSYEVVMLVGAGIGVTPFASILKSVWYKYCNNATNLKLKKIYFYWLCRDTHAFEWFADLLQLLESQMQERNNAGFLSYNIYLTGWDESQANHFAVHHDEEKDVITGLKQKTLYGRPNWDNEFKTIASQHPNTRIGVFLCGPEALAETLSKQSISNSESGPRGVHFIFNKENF
T1 sequence (P13498 1-195 partner): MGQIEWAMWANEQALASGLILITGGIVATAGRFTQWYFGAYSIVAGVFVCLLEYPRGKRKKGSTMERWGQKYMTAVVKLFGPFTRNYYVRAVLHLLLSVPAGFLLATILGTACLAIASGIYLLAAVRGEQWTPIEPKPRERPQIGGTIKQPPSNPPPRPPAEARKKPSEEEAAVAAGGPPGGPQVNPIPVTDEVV
Put plainly: HL60 cell-based assays (Assay 1 Oxyburst green BSA fluorescence, Assay 2 L-012 luminescence); result stated for at least one of them. Conditions: PMA-stimulated superoxide production in differentiated HL60 cells; at least one of Oxyburst and L012 assays; read-out: pIC50 in at least one of the HL60 assays (converted). The procedure:
In the cell-based assay, superoxide production by NOX2 was measured in differentiated HL60 cells, a human myelomonocytic leukemia cell line, using either Oxyburst (Assay1) or L012 (Assay2). Differentiation of HL-60 cells to granulocytes increases NOX2 expression. The phorbol 12-myristate 13-acetate (PMA) was used to stimulate the production of superoxide in HL60 cells by activating protein kinase C, which then activated the NADPH oxidase (NOX) enzymes. Inhibition of NOX2 enzyme was detected by the reversal of fluorescence signal (Assay1) or luminescence signal (Assay2). The control inhibitor used was diphenyleneiodonium chloride (DPI), a […] inhibitor capable of non-selectively inhibiting superoxide produced by NOX enzymes.
Assay 1: in this high-throughput screening assay, oxyburst green bovine serum albumin (BSA) was used to detect superoxide production in HL60 cells. Oxidation of Oxyburst green BSA by hydrogen peroxide as a result of the activation of NOX2 by PMA. Oxyburst green BSA fluorescence was measured at excitation 485 nm and emission 530 nm.
Assay 2: in this assay, a chemiluminescence probe, L-012 was used to detect superoxide production in HL60 cells. L-012 reacted with various types of reactive oxygen species generated by PMA-activated HL60 cells. Luminescence was measured using Tecan Infinite 500.
The HL60 cells were differentiated into neutrophil-like cells by adding 1.3% DMSO in the media for 3-7 days (Hua, J et al. (2000) Journal of Leukocyte Biology. 68:216-224). Iscove's Modified Dulbecco's Media (IMDM) with L-Glutamine and 25 mM HEPES buffer, Fetal Bovine Serum (FBS), Penicillin/Streptomycin, Oxyburst Green BSA, PBS, and HBSS buffer with Calcium Chloride and Magnesium Chloride were purchased from Invitrogen (Catalog #s: 12440-061, 10500-064, 15140-163, O-13291, 14190-250, and 14025-134 respectively). Phorbol 12-myristate 13-acetate (PMA), glucose, and CHAPS were purchased from Sigma (Catalog #s: 79346, D-9434, and C5070 respectively). Diphenyleneiodonium chloride (DPI) was purchased from Toronto Research Chemicals (Catalog #: D491500). L-012 was purchased from Wako Chemical (Catalog #: 120-04891). Dimethyl sulfoxide (DMSO) was purchased EMD Chemicals (VWR Catalog #: MX1456-1). Multidrop combi was purchased from Thermo Electron Corporation (Waltham, Mass., USA). Hummingbird nanoliter liquid dispenser was purchased from Genomics Solution (Ann Arbor, Mich., USA). 384 well low-volume plates and polypropylene 384 well clear plates were purchased from Greiner (Catalog #: 784076 and 781280 respectively). 96 well plate and 384 well plate black assay plates were purchased from Greiner (Catalog #: 655094 and 781098). 96 well plate for compound serial dilution was purchased from Corning (Catalog #: 9017). Acquest or Analyst fluorescence plate reader was purchased from LJL Biosystems/Molecular Devices (California, USA). Tecan Infinite 500 was purchased from Tecan (Switzerland).
Media for HL60 cells were kept at 4° C. for storage and were warmed to 37° C. in a water bath before use. The media components were IMDM media with 20% FBS and 1% Penicillin/Streptomycin.
Buffer to be used for compound addition and compound dilution consisted of HBSS buffer with 0.1% glucose.
Buffer to be used for cells consisted of HBSS buffer with 0.1% glucose and 0.01% CHAPS.
HL60 cells were thawed and resuspended in Cells media. The cells were centrifuged at 1200 rpm for 8 minutes. Media was aspirated and the cells were resuspended in Cells buffer. The cells were counted and resuspended to 1×10^6 cells/mL.
Full inhibition controls were dispensed using 100 nL/well of 1 mM DPI in DMSO to column 18 of a 384 well plate. Compounds were dispensed using 100 nL/well. Full activity controls were dispensed using 100 nL/well of 4 uM PMA in DMSO. Oxyburst Green BSA was added to cell solution at 10 ug/mL. Using the Multidrop, 10 uL cell solution was added to the entire assay plate. The assay plate was incubated at room temperature for 100 minutes. […]

On to `COc1ccc(-c2c(C)sc3nc(C)cc(NS(=O)(=O)c4cccc(Cl)c4)c23)cc1` [Example 18, 3-Chloro-N-{2,6-dimethyl-3-[4-(methyloxy)phenyl]thieno[2,3-b]pyridin-4-yl}-benzenesulfonamide], for which the IC50 was less than 100 µM. In the case of `COC(=O)c1sc2nc(C)cc(NS(=O)(=O)c3cccc(Cl)c3)c2c1-c1cccc(OC)c1` [Example 36, Methyl 4-{[(3-chlorophenyl)sulfonyl]amino}-6-methyl-3-[3-(methyloxy)phenyl]thieno[2,3-b]pyridine-2-carboxylate] it was less than 100 µM; in that of `COc1ccc(-c2csc3nc(C)cc(NS(=O)(=O)c4cccc(Cl)c4)c23)cc1OC` [Example 47, N-{3-[3,4-Bis(methyloxy)phenyl]-6-methylthieno[2,3-b]pyridin-4-yl}-3-chlorobenzenesulfonamide trifluoroacetate], less than 100 µM.

The record behind these values is patent US9029545B2, “Thienopyridine NOX2 inhibitors” (GlaxoSmithKline Intellectual Property Limited, priority 2009, dated 2015).
